Measured values: patent US12043600B2, “Microbiocidal compounds” (SYNGENTA CROP PROTECTION AG, priority 2018, dated 2024)

Legend:
[1] = tested on: Puccinia recondita f. sp. tritici; test: Puccinia recondita f. sp. tritici/Wheat/Leaf Disc Preventative (Brown Rust); assay type: in vivo; conditions: foliar
Pyrenophora teres = test: Pyrenophora teres/Barley/Leaf Disc Preventative (Net Blotch); assay type: in vivo; conditions: foliar, P. teres (B15), read-out: Disease control (%)
Source text: Barley leaf segments cv. Hasso are placed on agar in a multiwell plate (24-well format) and sprayed with the formulated test compound diluted in water. The leaf segments are inoculated with a spore suspension of the fungus 2 days after application. […] The data are presented as the percentage of disease control of each compound for the biological tests against G. lagenarium (Example B3), P. recondita preventative (Example B13), P. teres (Example B15) and M. graminicola (Example B19) as described above. The testing rates of each biological test is specifically described in table C1 below.

[2] = tested on: Mycosphaerella graminicola (Septoria tritici); test: Mycosphaerella graminicola (Septoria tritici)/Liquid Culture (Septoria Blotch); assay type: cell-based; conditions: Zymoseptoria tritici; for inhibition of growth at 6 ppm: M. graminicola (B19), read-out: Disease control (%); for inhibition of growth at 20 ppm: liquid culture, compared to untreated control
In short: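 Results given as % disease control: test compound in DMSO was placed in wells first, then potato dextrose broth carrying cryostored fungal conidia was added.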

[3] = tested on: Botryotinia fuckeliana (Botrytis cinerea); test: Botryotinia fuckeliana (Botrytis cinerea)/Liquid Culture (Gray Mould); assay type: cell-based; conditions: liquid culture, compared to untreated control
Protocol: Conidia of the fungus from cryogenic storage are directly mixed into nutrient broth (Vogels broth). After placing a (DMSO) solution of test compound into a microtiter plate (96-well format), the nutrient broth containing the fungal spores is added.

[4] = tested on: Monographella nivalis (Microdochium nivale); test: Monographella nivalis (Microdochium nivale)/Liquid Culture (Foot Rot Cereals); assay type: cell-based; conditions: liquid culture, compared to untreated control
In short: (§1)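 PDB + cryo-stored conidia; compound in DMSO pre-plated, spore broth added on top.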

[5] = tested on: Mycosphaerella arachidis (Cercospora arachidicola); test: Mycosphaerella arachidis (Cercospora arachidicola)/Liquid Culture (Early Leaf Spot); assay type: cell-based; conditions: liquid culture, compared to untreated control
In short: as §1

Phakopsora pachyrhizi = test: Phakopsora pachyrhizi/Soybean/Preventative (Soybean Rust); assay type: in vivo; conditions: foliar, 288 h, 200 ppm, soybean leaf disc preventative, compared to untreated control, read-out: control of Phakopsora pachyrhizi
Plasmopara viticola = test: whole plant or invertebrate; assay type: in vivo; conditions: foliar, read-out: control of Plasmopara viticola
[6] = tested on: Puccinia recondita f. sp. tritici; test: Puccinia recondita f. sp. tritici/Wheat/Leaf Disc Curative (Brown Rust); assay type: in vivo; conditions: foliar, wheat leaf disc curative, compared to untreated control
Protocol: Wheat leaf segments cv. Kanzler are placed on agar in multiwell plates (24-well format). The leaf segments are inoculated with a spore suspension of the fungus. Plates are stored in darkness at 19° C. and 75% rh. The formulated test compound diluted in water is applied 1 day after inoculation. The leaf segments are incubated at 19° C. and 75% rh under a light regime of 12 h light/12 h darkness in a climate cabinet and the activity of a compound is assessed as percent disease control compared to untreated when an appropriate level of disease damage appears in untreated check leaf segments (6-8 days after application).

[7] = tested on: Glomerella lagenarium (Colletotrichum lagenarium); test: Glomerella lagenarium (Colletotrichum lagenarium)/Liquid Culture (Anthracnose); assay type: cell-based; conditions: Colletotrichum orbiculare, liquid culture, compared to untreated control
[8] = tested on: Phaeosphaeria nodorum (Septoria nodorum); test: Phaeosphaeria nodorum (Septoria nodorum)/Wheat/Leaf Disc Preventative (Glume Blotch); assay type: in vivo; conditions: Parastagonospora nodorum, foliar, wheat leaf disc preventative, compared to untreated control
In short: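 Preventative test: compound spray first, then spore inoculation after 2 days on cv. Kanzler wheat leaf segments. Incubation in a climate cabinet at 20 °C and 75% rh under a 12 h light/12 h dark cycle. Activity rated as % control relative to untreated discs at 5–7 days post-application.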

Phytophthora infestans = test: whole plant or invertebrate; assay type: in vivo; conditions: in Solanum lycopersicum, foliar, read-out: control of Phytophthora infestans
[9] = tested on: Magnaporthe grisea (Pyricularia oryzae); test: whole plant or invertebrate; assay type: in vivo; conditions: foliar, read-out: control of Magnaporthe grisea
[10] = tested on: Blumeria graminis f. sp. tritici (Erysiphe graminis f. sp. tritici); test: Blumeria graminis f. sp. tritici/Wheat/Leaf Disc Preventative (Powdery Mildew on Wheat); assay type: in vivo; conditions: foliar, wheat leaf disc preventative, compared to untreated control
In short: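 Preventative leaf-disc test: percent disease control versus untreated leaf segments read 6-8 days post-application. Compound spray applied to wheat cv. Kanzler segments on agar one day before shaking infected plants over them; incubation at 20° C and 60% rh, 24 h darkness then 12 h light/12 h dark cycles.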

[11] = P. recondita prev (B13), read-out: Disease control (%)
[12] = wheat leaf disc preventative, compared to untreated control, read-out: control of Puccinia recondita f. sp. tritici

| Structure (SMILES) | pest or weed control at 60 ppm [1, 11] [%] | pest or weed control at 200 ppm (Pyrenophora teres) [%] | inhibition of growth at 6 ppm [2] [%] | inhibition of growth at 20 ppm [3] [%] | inhibition of growth at 20 ppm [4] [%] | inhibition of growth at 20 ppm [5] [%] | pest or weed control at 200 ppm (Phakopsora pachyrhizi) [%] | pest or weed control at 200 ppm (Plasmopara viticola) [%] | pest or weed control at 200 ppm [6] [%] | pest or weed control at 200 ppm [1, 12] [%] | inhibition of growth at 20 ppm [2] [%] | melting point [°C] | inhibition of growth at 20 ppm [7] [%] | pest or weed control at 200 ppm [8] [%] | pest or weed control at 200 ppm (Phytophthora infestans) [%] | pest or weed control at 200 ppm [9] [%] | pest or weed control at 200 ppm [10] [%] | pest or weed control at 200 ppm [1, 11] [%] | pest or weed control at 20 ppm (Pyrenophora teres; 20 ppm) [%] |
| --- | --- | --- | --- | --- | --- | --- | --- | --- | --- | --- | --- | --- | --- | --- | --- | --- | --- | --- | --- |
| CO/C=C(\Oc1cc(-n2ccc(OC(C)C)n2)ccc1C)C(=O)OC [drawing 150] | 100 | 90 | 100 |  |  |  |  |  |  |  |  |  |  |  |  |  |  |  |  |
| CO/C=C(\Oc1cc(-n2ccc(C)n2)c(OC)cc1C)C(=O)OC [Compound E-37, methyl (Z)-3-methoxy-2-[4-methoxy-2-methyl-5-(3-methylpyrazol-1-yl)phenoxy]prop-2-enoate] |  |  |  | ≥ 80 | ≥ 80 | ≥ 80 | ≥ 50 | ≥ 80 | ≥ 80 | ≥ 80 | ≥ 80 | 99 to 101 |  |  |  |  |  |  |  |
| CO/C=C(\Oc1cc(-n2cc(C(C)(C)C)cn2)ccc1C)C(=O)OC [Compound E-49, methyl (Z)-2-[5-(4-tert-butylpyrazol-1-yl)-2-methyl-phenoxy]-3-methoxy-prop-2-enoate] |  |  |  | ≥ 80 | ≥ 80 | ≥ 80 |  | ≥ 80 | ≥ 80 | ≥ 80 | ≥ 80 |  | ≥ 80 | ≥ 80 | ≥ 80 | ≥ 80 |  |  |  |
| CO/C=C(\Oc1cccc(-n2ncc(C3CC3)n2)c1)C(=O)OC [drawing 146] | 100 | 0 | 90 |  |  |  |  |  |  |  |  |  |  |  |  |  |  |  |  |
| CO/C=C(\Oc1cc(-n2cc(C)c(C)n2)ccc1C)C(=O)OC [Compound E-116, methyl (Z)-2-[5-(3,4-dimethylpyrazol-1-yl)-2-methyl-phenoxy]-3-methoxy-prop-2-enoate] |  |  |  | ≥ 80 | ≥ 80 | ≥ 80 |  | ≥ 80 | ≥ 80 | ≥ 80 | ≥ 80 | 155 to 157 | ≥ 80 |  | ≥ 80 |  | ≥ 80 |  |  |
| CO/C=C(\Oc1cc(-n2ccc(OC(F)F)n2)ccc1C)C(=O)OC [Compound E-66, methyl (Z)-2-[5-[3-(difluoromethoxy)pyrazol-1-yl]-2-methyl-phenoxy]-3-methoxy-prop-2-enoate] |  |  |  | ≥ 80 | ≥ 80 | ≥ 80 |  | ≥ 80 | ≥ 80 | ≥ 80 | ≥ 80 | 123 to 126 | ≥ 80 | ≥ 80 |  |  | ≥ 80 |  |  |
| CO/C=C(\Oc1cccc(-n2cccc2)c1)C(=O)OC [drawing 154, reference compound] |  | 0 | 20 |  |  |  |  |  |  |  |  |  |  |  |  |  |  | 0 |  |
| CO/C=C(\Oc1cc(-n2ncc(C3CC3)n2)ccc1C)C(=O)OC [drawing 147] | 100 |  | 100 |  |  |  |  |  |  |  |  |  |  |  |  |  |  |  | 50 |
| CO/C=C(\Oc1cc(-n2cc(Br)cn2)ccc1C)C(=O)OC [Compound E-47, methyl (Z)-2-[5-(4-bromopyrazol-1-yl)-2-methyl-phenoxy]-3-methoxy-prop-2-enoate] |  |  |  | ≥ 80 | ≥ 80 | ≥ 80 | ≥ 50 | ≥ 80 | ≥ 80 | ≥ 80 | ≥ 80 |  | ≥ 80 | ≥ 80 | ≥ 80 | ≥ 80 | ≥ 80 |  |  |
| CCOc1ccn(-c2ccc(C)c(O/C(=C\OC)C(=O)OC)c2)n1 [Compound E-94, methyl (Z)-2-[5-(3-ethoxypyrazol-1-yl)-2-methyl-phenoxy]-3-methoxy-prop-2-enoate] |  |  |  | ≥ 80 | ≥ 80 | ≥ 80 |  | ≥ 80 | ≥ 80 | ≥ 80 | ≥ 80 | 94 to 96 | ≥ 80 | ≥ 80 | ≥ 80 |  | ≥ 80 |  |  |
| CO/C=C(\Oc1cc(-n2ccc(C(C)C)n2)c(C)cc1C)C(=O)OC [Compound E-25, methyl (Z)-2-[5-(3-isopropylpyrazol-1-yl)-2,4-dimethyl-phenoxy]-3-methoxy-prop-2-enoate] |  |  |  | ≥ 80 | ≥ 80 | ≥ 80 |  | ≥ 80 | ≥ 80 | ≥ 80 | ≥ 80 | 96 to 98 | ≥ 80 |  | ≥ 80 | ≥ 80 | ≥ 80 |  |  |
| CO/C=C(\Oc1cc(-n2ccc(OC)n2)ccc1C)C(=O)OC [Compound E-95, methyl (Z)-3-methoxy-2-[5-(3-methoxypyrazol-1-yl)-2-methyl-phenoxy]prop-2-enoate] |  |  |  | ≥ 80 | ≥ 80 | ≥ 80 |  | ≥ 80 | ≥ 80 | ≥ 80 | ≥ 80 | 120 to 123 | ≥ 80 |  | ≥ 80 |  | ≥ 80 |  |  |
